Activity calls are given as the source filed them. No cut-off for these calls is given here.
Key:
Adenosine receptor A2a [1] = molecular target: Adenosine receptor A2a (Rattus norvegicus, UniProt P30543); test: Binding affinity to A2A receptor in rat brain striatal membrane by radioligand displacement assay; type: cell membranes
Mus musculus [2] = test: Reversal of haloperidol-induced catalepsy in CD1 mouse at 10 mg/kg, po treated 2.5 hrs after haloperidol injection measured every 60 mins for 3 hrs; type: functional, organism-based; parameters: dose 10 mg/kg
[3] = molecular target: 5-hydroxytryptamine receptor 2B (Homo sapiens) (UniProt P41595); test: Displacement of [125I](+/-)DOI from human recombinant 5HT2B receptor expressed in CHO cells at 10 uM after 60 mins by scintillation counting analysis; type: cell-based
Chain of 5-hydroxytryptamine receptor 2B (Homo sapiens) (P41595 whole entry): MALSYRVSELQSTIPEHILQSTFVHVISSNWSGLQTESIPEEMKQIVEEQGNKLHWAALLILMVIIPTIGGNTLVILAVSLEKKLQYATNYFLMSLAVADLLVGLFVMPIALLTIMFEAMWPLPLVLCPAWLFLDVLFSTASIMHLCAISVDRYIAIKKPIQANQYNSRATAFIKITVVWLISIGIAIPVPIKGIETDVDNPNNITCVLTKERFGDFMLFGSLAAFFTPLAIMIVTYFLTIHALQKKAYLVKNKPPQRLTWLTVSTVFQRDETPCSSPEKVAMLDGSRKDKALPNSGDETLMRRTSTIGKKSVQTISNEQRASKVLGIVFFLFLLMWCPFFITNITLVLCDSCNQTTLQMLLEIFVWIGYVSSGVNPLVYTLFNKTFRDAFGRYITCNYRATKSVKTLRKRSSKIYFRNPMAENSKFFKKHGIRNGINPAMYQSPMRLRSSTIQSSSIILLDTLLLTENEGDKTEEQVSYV

Adenosine receptor A2a [4] = molecular target: T1, Adenosine receptor A2a (Homo sapiens, UniProt P29274); test: Displacement of [3H]CGS 21680 from human recombinant adenosine A2A receptor expressed in HEK293 cells at 10 uM after 120 mins by scintillation counting analysis; type: cell-based
T1 sequence (P29274 whole entry): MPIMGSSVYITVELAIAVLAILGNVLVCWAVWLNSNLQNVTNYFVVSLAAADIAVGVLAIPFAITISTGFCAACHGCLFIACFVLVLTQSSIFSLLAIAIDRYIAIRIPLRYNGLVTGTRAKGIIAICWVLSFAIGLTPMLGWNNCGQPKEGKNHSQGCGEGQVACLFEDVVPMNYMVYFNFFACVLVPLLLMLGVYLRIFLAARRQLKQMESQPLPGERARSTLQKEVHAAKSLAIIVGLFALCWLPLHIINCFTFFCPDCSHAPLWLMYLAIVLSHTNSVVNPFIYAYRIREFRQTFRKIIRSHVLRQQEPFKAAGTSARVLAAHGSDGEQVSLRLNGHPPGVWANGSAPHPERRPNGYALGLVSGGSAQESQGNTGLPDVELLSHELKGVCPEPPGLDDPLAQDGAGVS

Adenosine receptor A2a [5] = molecular target: T1, Adenosine receptor A2a; test: Displacement of [3H]ZM241385 from human adenosine A2A receptor expressed in HEK293 cells after 1 hr by microbeta scintillation counting analysis; type: cell-based
[6] = molecular target: T2, Adenosine receptor A1 (Homo sapiens) (UniProt P30542); test: Displacement of [3H]DPCPX from human recombinant adenosine A1 receptor expressed in CHO cells at 10 uM after 60 mins by scintillation counting analysis; type: cell-based
T2 sequence (whole entry): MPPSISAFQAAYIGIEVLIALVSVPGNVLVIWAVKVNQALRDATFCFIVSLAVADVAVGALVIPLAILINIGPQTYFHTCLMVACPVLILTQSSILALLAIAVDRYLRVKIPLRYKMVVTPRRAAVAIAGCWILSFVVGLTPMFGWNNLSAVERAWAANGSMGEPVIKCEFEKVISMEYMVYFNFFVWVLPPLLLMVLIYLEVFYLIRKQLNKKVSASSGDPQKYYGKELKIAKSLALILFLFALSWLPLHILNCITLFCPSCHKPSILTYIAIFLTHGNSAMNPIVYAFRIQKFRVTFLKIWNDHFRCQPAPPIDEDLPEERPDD

Mus musculus [7] = test: General behavioral response in CD1 mouse assessed as induction of limbic stereotype at 30 to 100 mg/kg, po after 90 mins by Irwin test; type: organism-based, Limbic system; parameters: dose 30-100 mg/kg, route oral; details: in vivo, 1.5 h
[8] = molecular target: T3, Substance-K receptor (Homo sapiens) (UniProt P21452); test: Displacement of [125I]NKA human recombinant NK2 receptor expressed in CHO cells at 10 uM after 60 mins by scintillation counting analysis; type: cell-based
T3 sequence (whole entry): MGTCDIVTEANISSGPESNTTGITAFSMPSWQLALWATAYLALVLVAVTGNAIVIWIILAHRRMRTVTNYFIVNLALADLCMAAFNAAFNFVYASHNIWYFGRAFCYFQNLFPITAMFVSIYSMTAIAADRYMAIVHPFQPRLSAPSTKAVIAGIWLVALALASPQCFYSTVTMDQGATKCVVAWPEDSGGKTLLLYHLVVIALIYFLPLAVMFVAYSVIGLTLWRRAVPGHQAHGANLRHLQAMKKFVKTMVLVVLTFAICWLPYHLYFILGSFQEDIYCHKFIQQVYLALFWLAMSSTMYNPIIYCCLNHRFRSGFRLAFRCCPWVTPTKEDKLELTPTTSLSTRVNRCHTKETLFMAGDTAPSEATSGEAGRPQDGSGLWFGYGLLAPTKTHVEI

Mus musculus [9] = test: General behavioral response in CD1 mouse assessed as induction of limbic stereotype at 10 mg/kg, po after 90 mins by Irwin test; type: organism-based, Limbic system; parameters: dose 10 mg/kg, route oral; details: in vivo, 1.5 h
Mus musculus [10] = test: Reversal of haloperidol-induced catalepsy in po dosed CD1 mouse treated 2.5 hrs after haloperidol injection measured every 60 mins for 3 hrs; type: functional, organism-based
[11] = molecular target: T4, Amine oxidase [flavin-containing] A (Homo sapiens, UniProt P21397); test: Inhibition of human MAOA after 1 hr by luminescence assay
T4 sequence (P21397 whole entry): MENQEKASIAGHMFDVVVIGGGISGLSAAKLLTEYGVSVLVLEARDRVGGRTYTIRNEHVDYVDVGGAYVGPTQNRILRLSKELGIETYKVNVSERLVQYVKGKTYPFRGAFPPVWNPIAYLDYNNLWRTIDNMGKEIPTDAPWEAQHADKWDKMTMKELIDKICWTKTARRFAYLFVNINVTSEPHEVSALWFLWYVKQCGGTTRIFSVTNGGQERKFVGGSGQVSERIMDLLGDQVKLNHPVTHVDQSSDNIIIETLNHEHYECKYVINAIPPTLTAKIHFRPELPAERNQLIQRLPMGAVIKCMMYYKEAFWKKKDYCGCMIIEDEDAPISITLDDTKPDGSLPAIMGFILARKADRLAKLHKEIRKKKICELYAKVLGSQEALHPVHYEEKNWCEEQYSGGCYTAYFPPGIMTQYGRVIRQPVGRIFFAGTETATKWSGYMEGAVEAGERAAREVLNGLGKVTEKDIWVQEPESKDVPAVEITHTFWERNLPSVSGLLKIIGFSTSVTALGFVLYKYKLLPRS

Mus musculus [12] = test: General behavioral response in CD1 mouse assessed as induction of striatal stereotype at 30 to 100 mg/kg, po after 90 mins by Irwin test; type: organism-based; parameters: dose 30-100 mg/kg, route oral; details: in vivo, 1.5 h
[13] = molecular target: Sodium-dependent noradrenaline transporter (Homo sapiens) (UniProt P23975); test: Displacement of [3H]nisoxetine from human recombinant norepinephrine transporter expressed in CHO cells at 10 uM after 120 mins by scintillation counting analysis; type: cell-based
Chain of Sodium-dependent noradrenaline transporter (Homo sapiens) (P23975 whole entry): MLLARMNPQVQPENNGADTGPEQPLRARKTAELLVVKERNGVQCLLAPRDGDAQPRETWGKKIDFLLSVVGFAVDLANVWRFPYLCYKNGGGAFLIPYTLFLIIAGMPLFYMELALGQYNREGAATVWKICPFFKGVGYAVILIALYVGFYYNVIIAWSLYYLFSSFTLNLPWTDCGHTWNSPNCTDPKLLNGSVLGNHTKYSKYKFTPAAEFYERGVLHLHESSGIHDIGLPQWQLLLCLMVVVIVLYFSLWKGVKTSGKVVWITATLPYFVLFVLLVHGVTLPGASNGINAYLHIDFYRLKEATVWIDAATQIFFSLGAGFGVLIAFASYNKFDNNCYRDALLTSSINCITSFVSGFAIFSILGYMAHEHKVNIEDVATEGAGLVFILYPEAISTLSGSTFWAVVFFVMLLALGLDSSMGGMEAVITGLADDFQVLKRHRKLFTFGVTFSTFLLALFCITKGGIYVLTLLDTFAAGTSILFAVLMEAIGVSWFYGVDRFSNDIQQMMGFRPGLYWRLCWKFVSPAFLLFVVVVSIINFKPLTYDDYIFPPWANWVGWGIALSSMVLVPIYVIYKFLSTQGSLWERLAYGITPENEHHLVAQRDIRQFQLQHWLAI

[14] = molecular target: T5, Adenosine receptor A3 (Homo sapiens) (UniProt P0DMS8); test: Displacement of [125I]AB-MECA from human recombinant adenosine A3 receptor expressed in HEK293 cells at 10 uM after 120 mins by scintillation counting analysis; type: cell-based
T5 sequence (whole entry): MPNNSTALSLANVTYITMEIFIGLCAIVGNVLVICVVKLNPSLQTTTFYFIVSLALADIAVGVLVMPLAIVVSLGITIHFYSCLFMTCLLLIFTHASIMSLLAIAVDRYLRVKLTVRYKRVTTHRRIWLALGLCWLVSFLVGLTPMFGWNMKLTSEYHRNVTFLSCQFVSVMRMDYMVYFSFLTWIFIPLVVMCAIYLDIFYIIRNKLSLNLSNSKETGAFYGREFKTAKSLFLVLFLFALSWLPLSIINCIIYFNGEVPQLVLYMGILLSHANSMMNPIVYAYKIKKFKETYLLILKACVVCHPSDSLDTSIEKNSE

Mus musculus [15] = test: General behavioral response in CD1 mouse assessed as induction of striatal stereotype at 10 mg/kg, po after 90 mins by Irwin test; type: organism-based; parameters: dose 10 mg/kg, route oral; details: in vivo, 1.5 h
Mus musculus [16] = test: General behavioral response in CD1 mouse assessed as increase in licking behavior at 100 mg/kg, po after 240 mins by Irwin test; type: ADME, organism-based; parameters: dose 100 mg/kg, route oral; details: in vivo, 4 h
Mus musculus [17] = test: Reversal of haloperidol-induced catalepsy in CD1 mouse at 30 to 100 mg/kg, po treated 2.5 hrs after haloperidol injection measured every 60 mins for 3 hrs; type: functional, organism-based
[18] = molecular target: T6, Amine oxidase [flavin-containing] B (Homo sapiens, UniProt P27338); test: Inhibition of human MAOB after 1 hr by luminescence assay
T6 sequence (P27338 whole entry): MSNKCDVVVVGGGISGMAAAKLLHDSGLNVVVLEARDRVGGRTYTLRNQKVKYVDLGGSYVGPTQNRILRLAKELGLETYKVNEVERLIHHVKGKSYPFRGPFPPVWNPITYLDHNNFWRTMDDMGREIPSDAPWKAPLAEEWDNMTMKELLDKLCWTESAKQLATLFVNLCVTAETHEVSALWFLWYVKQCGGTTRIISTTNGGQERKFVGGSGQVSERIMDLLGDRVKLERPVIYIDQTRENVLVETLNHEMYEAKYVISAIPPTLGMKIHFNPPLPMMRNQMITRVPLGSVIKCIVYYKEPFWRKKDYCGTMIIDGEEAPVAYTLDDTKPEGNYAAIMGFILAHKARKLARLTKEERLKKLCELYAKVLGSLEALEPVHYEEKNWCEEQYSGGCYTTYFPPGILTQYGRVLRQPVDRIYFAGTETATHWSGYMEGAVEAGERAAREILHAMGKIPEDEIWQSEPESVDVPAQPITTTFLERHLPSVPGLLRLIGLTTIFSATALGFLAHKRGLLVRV

Chain of Adenosine receptor A2a (Rattus norvegicus, UniProt P30543) (P30543 whole entry): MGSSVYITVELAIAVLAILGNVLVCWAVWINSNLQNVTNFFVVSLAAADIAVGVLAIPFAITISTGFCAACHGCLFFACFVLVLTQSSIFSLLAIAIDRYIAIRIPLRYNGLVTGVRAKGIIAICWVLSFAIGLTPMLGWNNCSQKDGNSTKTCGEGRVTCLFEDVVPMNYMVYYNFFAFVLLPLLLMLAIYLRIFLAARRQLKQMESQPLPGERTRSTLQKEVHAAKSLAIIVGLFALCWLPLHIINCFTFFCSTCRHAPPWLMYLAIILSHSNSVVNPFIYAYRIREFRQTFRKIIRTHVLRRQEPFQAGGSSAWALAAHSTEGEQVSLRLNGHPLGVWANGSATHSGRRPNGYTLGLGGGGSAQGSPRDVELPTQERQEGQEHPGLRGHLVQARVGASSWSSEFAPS

inhibition [3] [%] | inhibition (Adenosine receptor A2a [4]) [%] | Ki (Adenosine receptor A2a [5]) [nM] | inhibition [6] [%] | inhibition [8] [%] | IC50 [11] [nM] | inhibition [13] [%] | inhibition [14] [%] | IC50 [18] [nM] | Compound | Ki (Adenosine receptor A2a [1]) [nM] | Activity (Mus musculus [2]) | Activity (Mus musculus [7]) | Activity (Mus musculus [9]) | Activity (Mus musculus [10]) | Activity (Mus musculus [12]) | Activity (Mus musculus [15]) | Activity (Mus musculus [16]) | Activity (Mus musculus [17])
– | – | – | – | – | – | – | – | – | C#CCn1c(=O)c2c(nc(C#Cc3ccccc3)n2C)n(C)c1=O | 300 | – | – | – | – | – | – | – | –
72 | 91 | 260 | 59 | 75 | 10000 | 57 | 60 | 200 | Cn1c(=O)c2c(cc(/C=C/c3ccc(Cl)cc3)n2C)n(C)c1=O | – | inactive | Toxic | Non-toxic | Dose-dependent effect | Toxic | Non-toxic | Toxic | Active
